{"source": "patent US12195482B1", "about": "(Arcus Biosciences, Inc., priority 2022, dated 2025)", "key": {"Axl": {"target": "T1, Axl (Homo sapiens, UniProt P30530)", "T1 sequence (P30530 26-894)": "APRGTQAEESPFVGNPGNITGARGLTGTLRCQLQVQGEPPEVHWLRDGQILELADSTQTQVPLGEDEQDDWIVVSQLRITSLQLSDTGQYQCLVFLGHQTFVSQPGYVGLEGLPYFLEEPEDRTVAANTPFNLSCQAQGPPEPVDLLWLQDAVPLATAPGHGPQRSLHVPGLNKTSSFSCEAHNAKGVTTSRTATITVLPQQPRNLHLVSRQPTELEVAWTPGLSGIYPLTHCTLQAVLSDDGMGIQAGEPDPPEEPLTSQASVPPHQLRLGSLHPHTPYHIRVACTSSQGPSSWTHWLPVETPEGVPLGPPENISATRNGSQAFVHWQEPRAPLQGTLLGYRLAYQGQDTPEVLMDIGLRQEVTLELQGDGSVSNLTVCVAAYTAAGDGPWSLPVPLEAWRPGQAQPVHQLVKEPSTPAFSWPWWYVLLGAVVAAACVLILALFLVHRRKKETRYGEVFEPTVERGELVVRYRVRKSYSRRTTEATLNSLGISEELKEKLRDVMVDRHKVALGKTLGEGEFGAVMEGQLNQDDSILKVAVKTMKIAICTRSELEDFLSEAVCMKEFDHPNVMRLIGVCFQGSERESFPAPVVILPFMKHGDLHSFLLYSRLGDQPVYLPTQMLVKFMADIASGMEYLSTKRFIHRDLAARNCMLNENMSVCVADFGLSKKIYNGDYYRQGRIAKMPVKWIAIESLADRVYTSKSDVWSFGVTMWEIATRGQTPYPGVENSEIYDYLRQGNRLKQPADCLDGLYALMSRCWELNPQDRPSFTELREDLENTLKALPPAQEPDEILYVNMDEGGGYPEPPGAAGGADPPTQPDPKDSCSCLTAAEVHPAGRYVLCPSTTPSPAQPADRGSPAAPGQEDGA", "test": "Biochemical potency, HTRF KinEASE-TK kinase assay", "set-up": "purchased Invitrogen", "conditions": "5 nM AXL, 700 μM ATP", "procedure,_shortened": "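Steps: compound plus kinase, 1 h RT; add ATP (700 µM final) and biotin-TK substrate (800 nM final); run 2 h RT; stop into streptavidin-XL665/anti-phospho cryptate detection mix, 1 h; read 665/620. AXL at 5 nM, TYRO3 and MER at 1 nM.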"}, "p-AXL": {"target": "T2, p-AXL (Homo sapiens, UniProt P30530)", "T2 construct": "expressed in transfected cells; host or cells: HEK293T", "T2 sequence (P30530 26-894)": "T1 sequence (P30530 26-894)", "test": "Axl phosphorylation inhibition ELISA in HEK293T cells transfected with NanoLuc-tagged AXL", "assay_type": "cell-based", "conditions": "1 h compound incubation, media (OptiMEM)", "procedure,_shortened": "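HEK293T cells transiently transfected one day earlier with NanoLuc-tagged AXL were exposed to 22-point 2-fold compound dilutions for 1 h at 37° C (70,000 cells/well), then lysed. Lysates captured on anti-phospho-tyrosine coated plates for 2 h; bound p-AXL read by NanoLuc luminescence; IC50 from 4-parameter logistic fit.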"}}, "data": [{"compound": "FC(F)c1cccnc1-c1ccc(-c2n[nH]c3ncc(-c4ccc5c(c4)CC[C@@H](N4C6COCC4C6)CC5)cc23)cc1", "note": "[Example 89, 6-[(7S)-3-[3-[4-[3-(Difluoromethyl)pyridin-2-yl]phenyl]-1H-pyrazolo[3,4-b]pyridin-5-yl]-6,7,8,9-tetrahydro-5H-benzo[7]annulen-7-yl]-3-oxa-6-azabicyclo[3.1.1]heptane]", "values": [{"measurement": "IC50", "setting": "Axl", "result": "< 100", "unit": "nM"}, {"measurement": "IC50", "setting": "p-AXL", "result": "100 to 1000", "unit": "nM"}]}, {"compound": "c1ccc(-c2ccc(-c3c[nH]c4ncc(-c5ccc6c(c5)CC[C@@H](N5C[C@@H]7C[C@H]5CO7)CC6)cc34)cc2)nc1", "note": "[Example 33, (1S,4S)-5-[(7S)-3-[3-(4-Pyridin-2-ylphenyl)-1H-pyrrolo[2,3-b]pyridin-5-yl]-6,7,8,9-tetrahydro-5H-benzo[7]annulen-7-yl]-2-oxa-5-azabicyclo[2.2.1]heptane]", "values": [{"measurement": "IC50", "setting": "Axl", "result": "< 100", "unit": "nM"}, {"measurement": "IC50", "setting": "p-AXL", "result": "100 to 1000", "unit": "nM"}]}, {"compound": "Cc1ccnnc1-c1ccc(-c2c[nH]c3ncc(-c4ccc5c(c4)CC[C@@H](N4C6COCC4C6)CC5)cc23)cc1", "note": "[Example 49, 6-[(7S)-2-{3-[4-(4-Methylpyridazin-3-yl)phenyl]-1H-pyrrolo[2,3-b]pyridin-5-yl}-6,7,8,9-tetrahydro-5H-benzo[7]annulen-7-yl]-3-oxa-6-azabicyclo[3.1.1]heptane]", "values": [{"measurement": "IC50", "setting": "Axl", "result": "< 100", "unit": "nM"}, {"measurement": "IC50", "setting": "p-AXL", "result": "< 100", "unit": "nM"}]}, {"compound": "Clc1cc(-c2c[nH]c3ncc(-c4ccc5c(c4)CC[C@@H](N4C6COCC4C6)CC5)cc23)ccc1-c1ccccn1", "note": "[Example 44, 6-[(7S)-2-{3-[3-Chloro-4-(pyridin-2-yl)phenyl]-1H-pyrrolo[2,3-b]pyridin-5-yl}-6,7,8,9-tetrahydro-5H-benzo[7]annulen-7-yl]-3-oxa-6-azabicyclo[3.1.1]heptane]", "values": [{"measurement": "IC50", "setting": "Axl", "result": "< 100", "unit": "nM"}, {"measurement": "IC50", "setting": "p-AXL", "result": "100 to 1000", "unit": "nM"}]}, {"compound": "COc1cc(-c2c[nH]c3ncc(-c4ccc5c(c4)CC[C@@H](N4C6COCC4C6)CC5)cc23)ccc1-c1ccccn1", "note": "[Example 161, 6-[(7S)-2-{3-[3-Methoxy-4-(pyridin-2-yl)phenyl]-1H-pyrrolo[2,3-b]pyridin-5-yl}-6,7,8,9-tetrahydro-5H-benzo[7]annulen-7-yl]-3-oxa-6-azabicyclo[3.1.1]heptane]", "values": [{"measurement": "IC50", "setting": "Axl", "result": "< 100", "unit": "nM"}]}, {"compound": "COc1ccnc(-c2ccc(-c3n[nH]c4ncc(-c5ccc6c(c5)CC[C@@H](N5C7COCC5C7)CC6)cc34)cc2)c1C", "note": "[Example 87, 6-[(7S)-3-[3-[4-(4-Methoxy-3-methylpyridin-2-yl)phenyl]-1H-pyrazolo[3,4-b]pyridin-5-yl]-6,7,8,9-tetrahydro-5H-benzo[7]annulen-7-yl]-3-oxa-6-azabicyclo[3.1.1]heptane]", "values": [{"measurement": "IC50", "setting": "Axl", "result": "< 100", "unit": "nM"}, {"measurement": "IC50", "setting": "p-AXL", "result": "100 to 1000", "unit": "nM"}]}, {"compound": "C[C@@H]1CCCN1[C@@]1(C)CCc2ccc(-c3cnc4[nH]nc(-c5ccc(-c6nccs6)cc5)c4c3)cc2CC1", "note": "[Example 91, 2-(4-{5-[(7S)-7-Methyl-7-[(2R)-2-methylpyrrolidin-1-yl]-6,7,8,9-tetrahydro-5H-benzo[7]annulen-2-yl]-2H-pyrazolo[3,4-b]pyridin-3-yl}phenyl)-1,3-thiazole]", "values": [{"measurement": "IC50", "setting": "Axl", "result": "< 100", "unit": "nM"}, {"measurement": "IC50", "setting": "p-AXL", "result": "100 to 1000", "unit": "nM"}]}, {"compound": "Cc1ccnnc1-c1ccc(-c2c[nH]c3ncc(-c4ccc5c(c4)CC[C@@](C)(N4CCC[C@H]4C)CC5)cc23)cc1", "note": "[Example 51, 4-methyl-3-(4-{5-[(7S)-7-Methyl-7-[(2R)-2-methylpyrrolidin-1-yl]-6,7,8,9-tetrahydro-5H-benzo[7]annulen-2-yl]-1H-pyrrolo[2,3-b]pyridin-3-yl}phenyl)pyridazine]", "values": [{"measurement": "IC50", "setting": "Axl", "result": "< 100", "unit": "nM"}, {"measurement": "IC50", "setting": "p-AXL", "result": "< 100", "unit": "nM"}]}, {"compound": "COCCOc1cccnc1-c1ccc(-c2c[nH]c3ncc(-c4ccc5c(c4)CC[C@@H](N4C6COCC4C6)CC5)cc23)cc1", "note": "[Example 3, 6-[(7S)-2-(3-{4-[3-(2-Methoxyethoxy)pyridin-2-yl]phenyl}-1H-pyrrolo[2,3-b]pyridin-5-yl)-6,7,8,9-tetrahydro-5H-benzo[7]annulen-7-yl]-3-oxa-6-azabicyclo[3.1.1]heptane]", "values": [{"measurement": "IC50", "setting": "Axl", "result": "< 100", "unit": "nM"}, {"measurement": "IC50", "setting": "p-AXL", "result": "< 100", "unit": "nM"}]}, {"compound": "N#Cc1cccnc1-c1ccc(-c2c[nH]c3ncc(-c4ccc5c(c4)CC[C@@H](N4C6COCC4C6)CC5)cc23)cc1", "note": "[Example 46, 2-(4-{5-[(7S)-7-{3-Oxa-6-azabicyclo[3.1.1]heptan-6-yl}-6,7,8,9-tetrahydro-5H-benzo[7]annulen-2-yl]-1H-pyrrolo[2,3-b]pyridin-3-yl}phenyl)pyridine-3-carbonitrile]", "values": [{"measurement": "IC50", "setting": "Axl", "result": "< 100", "unit": "nM"}, {"measurement": "IC50", "setting": "p-AXL", "result": "< 100", "unit": "nM"}]}, {"compound": "CS(=O)(=O)c1ccccc1-c1ccc(-c2c[nH]c3ncc(-c4ccc5c(c4)CC[C@@H](N4C6COCC4C6)CC5)cc23)cc1", "note": "[Example 93, 6-[(7S)-2-(3-{2′-Methanesulfonyl-[1,1′-biphenyl]-4-yl}-1H-pyrrolo[2,3-b]pyridin-5-yl)-6,7,8,9-tetrahydro-5H-benzo[7]annulen-7-yl]-3-oxa-6-azabicyclo[3.1.1]heptane]", "values": [{"measurement": "IC50", "setting": "Axl", "result": "< 100", "unit": "nM"}, {"measurement": "IC50", "setting": "p-AXL", "result": "100 to 1000", "unit": "nM"}]}, {"compound": "COc1cc(-c2n[nH]c3ncc(-c4ccc5c(c4)CC[C@@H](N4C6COCC4C6)CC5)cc23)ccc1-c1ccccn1", "note": "[Example 160, 6-[(7S)-2-{3-[3-Methoxy-4-(pyridin-2-yl)phenyl]-2H-pyrazolo[3,4-b]pyridin-5-yl}-6,7,8,9-tetrahydro-5H-benzo[7]annulen-7-yl]-3-oxa-6-azabicyclo[3.1.1]heptane]", "values": [{"measurement": "IC50", "setting": "Axl", "result": "< 100", "unit": "nM"}]}, {"compound": "c1cc(-c2ccc(-c3c[nH]c4ncc(-c5ccc6c(c5)CC[C@@H](N5C7COCC5C7)CC6)cc34)cc2)ccn1", "note": "[Example 41, 6-[(7S)-2-{3-[4-(Pyridin-4-yl)phenyl]-1H-pyrrolo[2,3-b]pyridin-5-yl}-6,7,8,9-tetrahydro-5H-benzo[7]annulen-7-yl]-3-oxa-6-azabicyclo[3.1.1]heptane]", "values": [{"measurement": "IC50", "setting": "Axl", "result": "< 100", "unit": "nM"}, {"measurement": "IC50", "setting": "p-AXL", "result": "100 to 1000", "unit": "nM"}]}, {"compound": "Cc1nccnc1-c1ccc(-c2c[nH]c3ncc(-c4ccc5c(c4)CC[C@@H](N4C6COCC4C6)CC5)cc23)cc1", "note": "[Example 48, 6-[(7S)-2-{3-[4-(3-Methylpyrazin-2-yl)phenyl]-1H-pyrrolo[2,3-b]pyridin-5-yl}-6,7,8,9-tetrahydro-5H-benzo[7]annulen-7-yl]-3-oxa-6-azabicyclo[3.1.1]heptane]", "values": [{"measurement": "IC50", "setting": "Axl", "result": "< 100", "unit": "nM"}, {"measurement": "IC50", "setting": "p-AXL", "result": "< 100", "unit": "nM"}]}, {"compound": "Fc1cccnc1-c1ccc(-c2c[nH]c3ncc(-c4ccc5c(c4)CC[C@@H](N4C6COCC4C6)CC5)cc23)cc1", "note": "[Example 42, 6-[(7S)-2-{3-[4-(3-Fluoropyridin-2-yl)phenyl]-1H-pyrrolo[2,3-b]pyridin-5-yl}-6,7,8,9-tetrahydro-5H-benzo[7]annulen-7-yl]-3-oxa-6-azabicyclo[3.1.1]heptane]", "values": [{"measurement": "IC50", "setting": "Axl", "result": "< 100", "unit": "nM"}]}, {"compound": "Clc1cccnc1-c1ccc(-c2c[nH]c3ncc(-c4ccc5c(c4)CC[C@@H](N4C6COCC4C6)CC5)cc23)cc1", "note": "[Example 43, 6-[(7S)-2-{3-[4-(3-Chloropyridin-2-yl)phenyl]-1H-pyrrolo[2,3-b]pyridin-5-yl}-6,7,8,9-tetrahydro-5H-benzo[7]annulen-7-yl]-3-oxa-6-azabicyclo[3.1.1]heptane]", "values": [{"measurement": "IC50", "setting": "Axl", "result": "< 100", "unit": "nM"}]}, {"compound": "COc1cccc(-c2ccc(-c3n[nH]c4ncc(-c5ccc6c(c5)CC[C@@H](N5C7COCC5C7)CC6)cc34)cc2)n1", "note": "[Example 162, 6-[(7S)-2-{3-[4-(6-Methoxypyridin-2-yl)phenyl]-2H-pyrazolo[3,4-b]pyridin-5-yl}-6,7,8,9-tetrahydro-5H-benzo[7]annulen-7-yl]-3-oxa-6-azabicyclo[3.1.1]heptane]", "values": [{"measurement": "IC50", "setting": "Axl", "result": "< 100", "unit": "nM"}]}, {"compound": "Cc1nncn1-c1ccc(-c2n[nH]c3ncc(-c4ccc5c(c4)CC[C@@H](N4C6COCC4C6)CC5)cc23)cc1", "note": "[Example 11, 6-[(7S)-2-{3-[4-(3-Methyl-4H-1,2,4-triazol-4-yl)phenyl]-1H-pyrazolo[3,4-b]pyridin-5-yl}-6,7,8,9-tetrahydro-5H-benzo[7]annulen-7-yl]-3-oxa-6-azabicyclo[3.1.1]heptane]", "values": [{"measurement": "IC50", "setting": "Axl", "result": "< 100", "unit": "nM"}]}, {"compound": "c1cncc(-c2ccc(-c3n[nH]c4ncc(-c5ccc6c(c5)CC[C@@H](N5C7COCC5C7)CC6)cc34)cc2)c1", "note": "[Example 157, 6-[(7S)-2-{3-[4-(Pyridin-3-yl)phenyl]-2H-pyrazolo[3,4-b]pyridin-5-yl}-6,7,8,9-tetrahydro-5H-benzo[7]annulen-7-yl]-3-oxa-6-azabicyclo[3.1.1]heptane]", "values": [{"measurement": "IC50", "setting": "Axl", "result": "< 100", "unit": "nM"}]}, {"compound": "Fc1cc(-c2c[nH]c3ncc(-c4ccc5c(c4)CC[C@@H](N4C6COCC4C6)CC5)cc23)ccc1-c1ccccn1", "note": "[Example 40, 6-[(7S)-2-{3-[3-Fluoro-4-(pyridin-2-yl)phenyl]-1H-pyrrolo[2,3-b]pyridin-5-yl}-6,7,8,9-tetrahydro-5H-benzo[7]annulen-7-yl]-3-oxa-6-azabicyclo[3.1.1]heptane]", "values": [{"measurement": "IC50", "setting": "Axl", "result": "< 100", "unit": "nM"}]}]}
